The assay deals with 743489-274-T-PDC complex spheroid growth. As to the kind of experiment: Anticancer human tumor 743489-274-T-PDC patient-derived renal cell carcinoma cell line growth inhibition [AhR]. As to conditions: for viability, T/C: stronger effect = lower value. In a few lines:
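Complex tumor spheroids co-cultured with HUVEC and human MSC stroma; AhR antagonists tested in combination with standard-of-care and investigational agents. Top concentration at or near clinical Cmax (else 10 microM), half-log dilutions; growth expressed as percent test/control.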

Where [1] appears, read: curve of first compound, second compound 0.1 µM.
Where [2] appears, read: curve of first compound, second compound 0.316 µM.
Where [3] appears, read: curve of first compound, second compound 1 µM.
The mark [4] stands for this setting: curve of first compound, second compound 3.16 µM.
The mark [5] stands for this setting: curve of first compound, second compound 10 µM.
The mark [6] stands for this setting: second compound 0.1 µM, first compound 0.00949 µM.
Setting [7] is: second compound 0.1 µM, first compound 0.03 µM.
The mark [8] stands for this setting: second compound 0.1 µM, first compound 0.0949 µM.
Setting [9] is: second compound 0.1 µM, first compound 0.3 µM.
The mark [10] stands for this setting: second compound 0.1 µM, first compound 0.949 µM.
The mark [11] stands for this setting: second compound 0.1 µM, first compound 3 µM.
[12] abbreviates: second compound 0.316 µM, first compound 0.00949 µM.
The mark [13] stands for this setting: second compound 0.316 µM, first compound 0.03 µM.
The mark [14] stands for this setting: second compound 0.316 µM, first compound 0.0949 µM.
The mark [15] stands for this setting: second compound 0.316 µM, first compound 0.3 µM.
Where [16] appears, read: second compound 0.316 µM, first compound 0.949 µM.
Where [17] appears, read: second compound 0.316 µM, first compound 3 µM.
Setting [18] is: second compound 1 µM, first compound 0.00949 µM.
Where [19] appears, read: second compound 1 µM, first compound 0.03 µM.
Setting [20] is: second compound 1 µM, first compound 0.0949 µM.
Setting [21] is: second compound 1 µM, first compound 0.3 µM.
The mark [22] stands for this setting: second compound 1 µM, first compound 0.949 µM.
Where [23] appears, read: second compound 1 µM, first compound 3 µM.
[24] abbreviates: second compound 3.16 µM, first compound 0.00949 µM.
[25] abbreviates: second compound 3.16 µM, first compound 0.03 µM.
[26] abbreviates: second compound 3.16 µM, first compound 0.0949 µM.
The mark [27] stands for this setting: second compound 3.16 µM, first compound 0.3 µM.
The mark [28] stands for this setting: second compound 3.16 µM, first compound 0.949 µM.
The mark [29] stands for this setting: second compound 3.16 µM, first compound 3 µM.
[30] abbreviates: second compound 10 µM, first compound 0.00949 µM.
The mark [31] stands for this setting: second compound 10 µM, first compound 0.03 µM.
Where [32] appears, read: second compound 10 µM, first compound 0.0949 µM.
Where [33] appears, read: second compound 10 µM, first compound 0.3 µM.
[34] abbreviates: second compound 10 µM, first compound 0.949 µM.
Where [35] appears, read: second compound 10 µM, first compound 3 µM.

pIC50: −log10 of the molar value. Where “and” joins values, the source holds several entries; their conditions need not be identical. Equal entries are not always repeated.
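Further: spheroids exposed to agents for 7 days before readout.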
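Wherever viability, T/C is given: 100% = DMSO vehicle control wells.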

As to `Cn1ncnc1C1c2n[nH]c(=O)c3cc(F)cc(c23)NC1c1ccc(F)cc1` (stereo unspecified), the viability, T/C is 100% and 101% and 102% (compound 0.000316 µM); 105% and 111% and 108% (compound 0.001 µM); 95.8% and 107% and 98.2% (compound 0.00316 µM); 91.2% and 103% and 108% (compound 0.01 µM); 97.2% and 95.4% and 95.6% (compound 0.0316 µM); 103% and 94% and 99.3% (compound 0.1 µM). Moreover, the pIC50 (curve of compound) was below 7.00.
Turning to `COc1ccc([C@@H](O)c2cc(-c3ncnc4cc(N5CCOCC5)ccc34)c(F)cc2Cl)nn1` + Cc1cncc(-c2nc(NCCc3c[nH]c4ccccc34)c3ncn(C(C)C)c3n2)c1, the negative logarithm of the IC50 (pIC50) is, setting by setting: under setting [1], 5.41; under setting [2], 5.50; under setting [3], 5.55; under setting [4], 5.34; under setting [5], below 5.00. In addition, the viability, T/C is 95.3% (second compound 0.1 µM, first compound 0.0316 µM); 98.9% (second compound 0.1 µM, first compound 0.1 µM); 90.3% (second compound 0.1 µM, first compound 0.316 µM); 98.1% (second compound 0.1 µM, first compound 1 µM); 52.9% (second compound 0.1 µM, first compound 3.16 µM); 36.1% (second compound 0.1 µM, first compound 10 µM). The viability, T/C (second compound 0.316 µM, first compound 0.0316 µM) is 94.2%; the viability, T/C (second compound 0.316 µM, first compound 0.1 µM) is 94.6%; the viability, T/C (second compound 0.316 µM, first compound 0.316 µM) was 88.4%; the viability, T/C (second compound 0.316 µM, first compound 1 µM) is 82.8%; the viability, T/C (second compound 0.316 µM, first compound 3.16 µM) is 49.4%; the viability, T/C (second compound 0.316 µM, first compound 10 µM) was 29.4%. Further, the viability, T/C reads like this: (second compound 1 µM, first compound 0.0316 µM) 99.5%; (second compound 1 µM, first compound 0.1 µM) 95%; (second compound 1 µM, first compound 0.316 µM) 93.2%; (second compound 1 µM, first compound 1 µM) 84.7%; (second compound 1 µM, first compound 3.16 µM) 46%; (second compound 1 µM, first compound 10 µM) 35.5%. Moreover, the viability, T/C by setting is: (second compound 3.16 µM, first compound 0.0316 µM) 112%; (second compound 3.16 µM, first compound 0.1 µM) 118%; (second compound 3.16 µM, first compound 0.316 µM) 102%; (second compound 3.16 µM, first compound 1 µM) 87.5%; (second compound 3.16 µM, first compound 3.16 µM) 53.8%; (second compound 3.16 µM, first compound 10 µM) 39.4%. Besides, the viability, T/C runs as follows: (second compound 10 µM, first compound 0.0316 µM) 114%; (second compound 10 µM, first compound 0.1 µM) 119%; (second compound 10 µM, first compound 0.316 µM) 102%; (second compound 10 µM, first compound 1 µM) 99.3%; (second compound 10 µM, first compound 3.16 µM) 65.5%; (second compound 10 µM, first compound 10 µM) 59.5%.
For the compound `CCN(c1cc(-c2ccc(CN3CCOCC3)cc2)cc(C(=O)NCc2c(C)cc(C)[nH]c2=O)c1C)C1CCOCC1` + Cc1cncc(-c2nc(NCCc3c[nH]c4ccccc34)c3ncn(C(C)C)c3n2)c1, the pIC50 is, setting by setting: under setting [1], below 5.52; under setting [2], below 5.52; under setting [3], below 5.52; under setting [4], below 5.52; under setting [5], below 5.52. Besides, the viability, T/C runs as follows: under setting [6], 102%; under setting [7], 102%; under setting [8], 99.9%; under setting [9], 91.3%; under setting [10], 92.7%; under setting [11], 94.4%. The viability, T/C reads like this: under setting [12], 94.8%; under setting [13], 104%; under setting [14], 93.1%; under setting [15], 88.1%; under setting [16], 85.9%; under setting [17], 94%. Also, the viability, T/C was 99.8% under setting [18]; 97.6% under setting [19]; 95.3% under setting [20]; 93% under setting [21]; 104% under setting [22]; 101% under setting [23]. In addition, the viability, T/C under setting [24] is 105%; the viability, T/C under setting [25] was 114%; the viability, T/C under setting [26] was 102%; the viability, T/C under setting [27] was 104%; the viability, T/C under setting [28] was 102%; the viability, T/C under setting [29] is 103%. Besides, the viability, T/C was 122% under setting [30]; 119% under setting [31]; 122% under setting [32]; 128% under setting [33]; 127% under setting [34]; 122% under setting [35].
On to `CCN(c1cc(-c2ccc(CN3CCOCC3)cc2)cc(C(=O)NCc2c(C)cc(C)[nH]c2=O)c1C)C1CCOCC1` + Cc1ccccc1N=Nc1ccc(NC(=O)c2ccnn2C)c(C)c1, for which the pIC50 by setting is: under setting [1], below 5.52; under setting [2], below 5.52; under setting [3], below 5.52; under setting [4], below 5.52; under setting [5], below 5.52. The viability, T/C is 91.2% under setting [6]; 88.2% under setting [7]; 93.7% under setting [8]; 84.5% under setting [9]; 90.8% under setting [10]; 90.4% under setting [11]. Besides, the viability, T/C under setting [12] was 82.1%; the viability, T/C under setting [13] is 93.3%; the viability, T/C under setting [14] was 86.2%; the viability, T/C under setting [15] was 77.3%; the viability, T/C under setting [16] is 86.6%; the viability, T/C under setting [17] was 84.2%. Besides, the viability, T/C runs as follows: under setting [18], 88.6%; under setting [19], 83.2%; under setting [20], 89.5%; under setting [21], 94.3%; under setting [22], 81%; under setting [23], 99.6%. Moreover, the viability, T/C was 76% under setting [24]; 77% under setting [25]; 77.2% under setting [26]; 74.5% under setting [27]; 81% under setting [28]; 82% under setting [29]. Further, the viability, T/C is 72.2% under setting [30]; 84.3% under setting [31]; 85.9% under setting [32]; 71.7% under setting [33]; 77.9% under setting [34]; 73.1% under setting [35].
In the case of `O=C(C=Cc1cccc(S(=O)(=O)Nc2ccccc2)c1)NO`, the viability, T/C was 101% and 91.6% and 104% (compound 0.0316 µM); 95.5% and 88.6% and 91.7% (compound 0.1 µM); 93.9% and 90.1% and 87.8% (compound 0.316 µM); 84.5% and 64.3% and 93% (compound 1 µM); 83.8% and 59.3% and 84.6% (compound 3.16 µM); 59.8% and 39.6% and 51.1% (compound 10 µM). Further, where the note is “curve of compound”, the pIC50 is < 5.00 and 5.32.
With `COc1ccc([C@@H](O)c2cc(-c3ncnc4cc(N5CCOCC5)ccc34)c(F)cc2Cl)nn1`, the viability, T/C (compound 0.0316 µM) was 107% and 116% and 95%; the viability, T/C (compound 0.1 µM) is 105% and 102% and 106%; the viability, T/C (compound 0.316 µM) was 94.2% and 93.8% and 101%; the viability, T/C (compound 1 µM) is 93.3% and 90.2% and 84.6%; the viability, T/C (compound 3.16 µM) was 65% and 45.8% and 61.5%; the viability, T/C (compound 10 µM) was 46.3% and 26% and 26.9%. Further, where the note is “curve of compound”, the pIC50 is 5.10 and 5.52 and 5.34.

Values taken from PubChem BioAssay AID1919002 (Molecular Pharmacology Branch, DTP, NCI, 2023).
